In patent EP4000623A1, “5-(2-(1H-INDOL-3-YL))-ETHYL)- PIPERAZIN-2-ONE DERIVATIVES FOR USE IN THE TREATMENT OF VIRAL INFECTIONS BY VIRUSES OF THE FAMILY CORONAVIRIDAE” (Consejo Superior De Investigaciones Científicas, priority 2020, dated 2022):
pEC50: −log10 of the molar value. Like-named read-outs stand apart in the source and are kept apart here.

Tests used:
hCoV-229E-GFP = assay type: cell-based, Human coronavirus 229E
[1] = Determination of cytotoxicity by MTT colorimetric assay; assay type: cell-based; conditions: African green monkey, uninfected Vero-E6 cells, 50 to 0.78 µM
Procedure: Determination of cytotoxicity by MTT colorimetric assay: To evaluate the cytotoxicity profile of the selected compounds MTT assays were performed in Vero-E6 cells. Uninfected cells were incubated with a range of compound concentrations (from 50 to 0.78 µM) for forty-eight hours, time at which the MTT substrate [3-(4,5-dimethylthiazol-2-yl)-2,5-diphenyltetrazolium bromide] was added and the formation of formazan precipitates was evaluated two hours later, using a colorimetric readout. Vehicle-treated cells were used as reference (100%).

SARS-CoV-2 [2] = test: Antiviral potency against SARS-CoV-2 in Vero-E6 cells (protection from virus-induced cytopathic effect / intracellular viral antigen accumulation); assay type: cell-based
SARS-CoV-2 [3] = test: Intracellular viral RNA quantitation by RT-qPCR; assay type: cell-based; conditions: 15µM; for intracellular viral RNA levels (in words): as compared with the uninfected controls; for % RNA relative to DMSO: Vero-E6, MOI 0.001, 48 h, SARS-CoV-2 E gene normalised to 18S, DMSO set as 100%
[4] = Severe acute respiratory syndrome coronavirus 2, Vero C1008, SARS-CoV-2 strain NL/2020, Vero-E6 cells, mean, read-out: EC50 mean
[5] = Severe acute respiratory syndrome coronavirus 2, Vero C1008, SARS-CoV-2 strain NL/2020, Vero-E6 cells, mean, read-out: EC90 mean

SMILES: CC(C)(C)OC(=O)CN1[C@@H]([C@H](Cc2cn(C(=O)OC(C)(C)C)c3ccccc23)NC(=O)OC(C)(C)C)CNC(=O)[C@@H]1CCCCNC(=O)OC(C)(C)C [Example 5, (5R,3S)-5-((S)-1-(tert-butoxycarbonyl)amino-2-(1-(tert-butoxycarbonyl)-(indol-3-yl))-ethyl)-4(tert-butoxycarbonyl)methyl-3-(4-(tert-butoxycarbonyl)aminobutyl)-2-oxopiperazine]
- % Reduction of hCoV-229E-GFP propagation (hCoV-229E-GFP): 94%
- CC50 at 48 h [1]: > 50 µM
- pEC50 (SARS-CoV-2 [2]; [4]): 5.71
- EC90 (SARS-CoV-2 [2]; [5]): 7.33 µM

SMILES: CC(C)(C)OC(=O)CN1[C@@H](CCCCNC(=O)OC(C)(C)C)C(=O)NC[C@H]1[C@H](Cc1cn(C(=O)OC(C)(C)C)c2ccccc12)NC(=O)OC(C)(C)C [Example 6, (5S,3S)-5-((S)-1-(tert-butoxycarbonyl)amino-2-(1-(tert-butoxycarbonyl)-(indol-3-yl))-ethyl)-4(tert-butoxycarbonyl)methyl-3-(4-(tert-butoxycarbonyl)aminobutyl)-2-oxopiperazine]
- intracellular viral RNA levels (in words) (SARS-CoV-2 [3]): virtually undetectable levels
- % RNA relative to DMSO (SARS-CoV-2 [3]): 10^-4%
- % Reduction of hCoV-229E-GFP propagation (hCoV-229E-GFP): 98%
- CC50 at 48 h [1]: > 50 µM
- pEC50 (SARS-CoV-2 [2]; [4]): 5.50
- EC90 (SARS-CoV-2 [2]; [5]): 9.67 µM

SMILES: CC(C)(C)OC(=O)NCCCC[C@@H]1N[C@H]([C@H](Cc2cn(C(=O)OC(C)(C)C)c3ccccc23)NC(=O)OC(C)(C)C)CNC1=O [Example 2, (5S,3S)-5-((S)-1-(tert-butoxycarbonyl)amino-2-(1-(tert-butoxycarbonyl)(indol-3-yl))-ethyl)-3-(4-(tert-butoxycarbonyl)amino-butyl)-2-oxopiperazine]
- CC50 at 48 h [1]: > 50 µM
- pEC50 (SARS-CoV-2 [2]; [4]): 4.81
- EC90 (SARS-CoV-2 [2]; [5]): 46.7 µM

SMILES: CC(C)(C)OC(=O)NCCCC[C@H]1C(=O)NC[C@H]([C@H](Cc2cn(C(=O)OC(C)(C)C)c3ccccc23)NC(=O)OC(C)(C)C)N1Cc1ccccc1 [Example 3, (5R,3S)-4-benzyl-5-((S)-1-(tert-butoxycarbonyl)amino-2-(1-(tert-butoxycarbonyl)(indol-3-yl))-ethyl)-3-(4-(tert-butoxycarbonyl)amino-butyl)-2-oxopiperazine]
- intracellular viral RNA levels (in words) (SARS-CoV-2 [3]): virtually undetectable levels
- % RNA relative to DMSO (SARS-CoV-2 [3]): 10^-2%
- % Reduction of hCoV-229E-GFP propagation (hCoV-229E-GFP): 94%
- CC50 at 48 h [1]: > 50 µM
- pEC50 (SARS-CoV-2 [2]; [4]): 5.20
- EC90 (SARS-CoV-2 [2]; [5]): 14.3 µM

SMILES: CC(C)(C)OC(=O)NCCCC[C@H]1C(=O)NCC([C@H](Cc2cn(C(=O)OC(C)(C)C)c3ccccc23)NC(=O)OC(C)(C)C)N1Cc1ccccc1 (stereo in doubt) [Example 4, (5R,3S)-4-benzyl-5-((S)-1-(tert-butoxycarbonyl)amino-2-(1-(tert-butoxycarbonyl)(indol-3-yl))-ethyl)-3-(4-(tert-butoxycarbonyl)amino-butyl)-2-oxopiperazine]
- % Reduction of hCoV-229E-GFP propagation (hCoV-229E-GFP): 97%
- CC50 at 48 h [1]: > 50 µM
- pEC50 (SARS-CoV-2 [2]; Severe acute respiratory syndrome coronavirus 2, Vero C1008, read-out: EC50 mean): 5.80
- EC90 (SARS-CoV-2 [2]; Severe acute respiratory syndrome coronavirus 2, Vero C1008, read-out: EC90 mean): 14.7 µM
